pIC50: −log10 of the molar value. “Also recorded” adds a separate entry of the source. Where two headings read alike, the source gives them in different places.
What was measured:
Format in all cases: cell-based, C57BL/6J mice
NLRP3 inflammasome [1] = experiment: NLRP3 inflammasome activation in primary astrocytes, IL-1β and IL-18 release by ELISA; conditions: for pIC50: Mus musculus, Astrocyte, primary astrocytes, microglial conditional media, LPS 1 μg/ml 4 h, IBC 1 h, ATP 5 mM 30 min, ELISA
Procedure: (§1) Primary astrocytes were first treated with microglia conditional media to induce astrogliosis ([Liddelow et al., 2017]). For this, the microglia (N9) cell line, provided by Dr. Anirban Basu (National Brain Research Centre, Gurgaon, India) was cultured in RPMI-1640. N9 cells (Passage 28-35) were seeded in 24 well plate at density 0.05 × 10^6 per well. The cells were treated with 1 μg/ml LPS, and supernatant was collected after 24 h. Seeded astrocytes were then treated with the LPS stimulated N9 cells supernatant for 24 h. Thereafter, the treatment for NLRP3 inflammasome activation was given, including priming with fresh 1 μg/ml LPS for 4 h, followed by washing and IBC or MCC950 (100 nM) treatment for 1 h in incomplete media (media without fetal bovine serum). ATP at 5 mM concentration was used as secondary signal for 30 min.
The experiment was terminated by collecting the cell supernatant.
After the termination of experiments, the supernatant was collected and analyzed for levels of cytokines. For measuring IL-1β and IL-18, supernatant collected after NLRP3 inflammasome activation as mentioned above, was subjected to ELISA. For detection of IL-1β in mice cortex, mice cortices were isolated and homogenized in RIPA buffer to measure IL-1β in homogenates. The manufacturer’s protocol was followed for measuring the cytokines. The levels of measured cytokines were normalized with the total protein content of the cells. For total protein content of cell pellet lysed with lysis buffer (0.2 N NaCl and 1% Triton-X 100) was measured.
IC50 of Isobavachalcone for IL-1β and IL-18 was calculated by using GraphPad Prism 8 software using non-linear regression analysis model. Log (inhibitor) vs. response curve was plotted.

primary astrocytes = experiment: Cell viability assay (MTT and SRB); conditions: 24 h, up to 100 μM
Procedure: For cell viability assay, primary astrocytes were seeded in 96 well plate and IBC treatment at different concentration was given for 24 h. For MTT assay, cells were treated with 1.25, 2.5, 5, 10, 20, 40, 80 and 100 μM of IBC, while for the SRB assay, 0.625, 1.25, 2.5, 5, […], 20, 40, 80 and 100 μM IBC treatment was given. MTT dye at a concentration of 2.5 mg/ml was added 4 h before experiment termination. Formazan crystals thus formed were dissolved in DMSO and absorbance was measured at 570 nm.
For the SRB assay, the experiment was terminated by adding 50% chilled TCA into the wells for 1 h. Pellets were washed five times with distilled water and kept drying. Cells were then incubated with SRB dye for 30 min at RT, followed by washing with 1% acetic acid thrice. After drying, pellets were dissolved in 10 mM Tris-HCl (pH-10.5) and absorbance was measured at 540 nm.

NLRP3 inflammasome [2] = experiment: NLRP3 inflammasome activation in primary astrocytes: immunoblotting, ASC oligomers and specks, co-localization; conditions: for co-localization of CASP1 and NLRP3: 10 μM
Procedure: as §1
Following treatment with 5 and 10 μM IBC (1 h) and NLRP3 inflammasome activation in primary astrocytes, cells were lysed with ice-cold buffer (KCl [150 mM], HEPES-KOH [20 mM, pH 7.5], NP-40 [1%], sodium orthovanadate [1 mM], PMSF [0.1 mM] and protease inhibitor cocktail [1%]). Cells were centrifuged at 300 g for 10 min. The supernatant was collected for western blot analysis of total ASC protein. The pellet was washed with cold PBS and resuspended in 500 µL cold PBS. For the crosslinking of ASC, 2 mM of […] was added to the resuspended pellet and incubated at 37°C for 30 min in water bath. After centrifugation, the supernatant was discarded, and a 2X Laemmli buffer was added to the pellet. The samples were heated at 95°C for 5 min and subjected to western blotting for analyzing ASC oligomers.
Levels of cleaved IL-1β and caspase-1 were analyzed in cellular supernatant. The supernatant collected after the end of the experiment was incubated with StartaClean resin for 1 h at 4°C. Samples were kept on rotation so that the resin could bind properly with proteins. The concentrated resin pellet was obtained by centrifuging samples at 300 g for 10 min 2X Laemmli buffer was added to the resin pellet, heated at 95°C for 10 min, and subjected to western blotting.
Cellular lysates were prepared using radio immuno precipitation assay (RIPA) buffer for protein analysis. Briefly, the cell pellet was dissolved in RIPA buffer containing sodium fluoride, sodium orthovanadate, phenyl methyl sulfonyl fluoride (PMSF) and 1% protease inhibitor cocktail for 1 h with vertexing sample every 15 min. The supernatant was collected after high-speed centrifugation of samples for 20 min at 4°C. For analysis of proteins in mice hippocampi, the hippocampi isolated from mice brains was immediately washed with saline and stored in liquid nitrogen. For lysates preparation, tissue was homogenized in RIPA buffer substituted with sodium fluoride, sodium orthovanadate, phenyl methyl sulfonyl fluoride and 1% protease inhibitor cocktail. Total protein was measured using Bradford assay. Proteins were separated using SDS-PAGE and then transferred from gel to PVDF membrane. The protein of interest was labeled with a specific primary antibody overnight at 4°C. Further, the blot was incubated with corresponding HRP-conjugated secondary antibody for 1 h at room temperature. The band were visualized in the Genaxy Chemi Doc imaging system (Make: Syngene, Maryland, USA; Model: G: BOX, XT-4). Densitometry analysis of all the immunoblots was performed by using ImageJ software. Band density of proteins was normalized with β-actin. The phosphorylated proteins were normalized with their total forms.
Cells were seeded on coverslips in 6 well plates. After treatments, cells were fixed with 4% paraformaldehyde (PFA) for 15 min and permeabilized with 0.1% Triton-X 100 for 7 min. Blocking was done for 30 min with 2% BSA, followed by overnight incubation with primary antibody. Alexa fluor conjugated secondary antibody incubation was given to cells for 1 h for labeling. The nucleus was stained with 4,6-diamidino-2-phenylindole (DAPI) (1 μg/mL) for 10 min. […]

LC3B and LAMP1 = LC3B and LAMP1 co-localization by confocal microscopy; conditions: primary astrocytes, 10 μM, 24 h
Procedure: Cells were seeded on coverslips in 6 well plates. After treatments, cells were fixed with 4% paraformaldehyde (PFA) for 15 min and permeabilized with 0.1% Triton-X 100 for 7 min. Blocking was done for 30 min with 2% BSA, followed by overnight incubation with primary antibody. Alexa fluor conjugated secondary antibody incubation was given to cells for 1 h for labeling. The nucleus was stained with 4,6-diamidino-2-phenylindole (DAPI) (1 μg/mL) for 10 min. Following staining, the coverslips were mounted on slides using mounting media (PBS and glycerol at a ratio of 1:9). Cells were washed thrice with PBS after each incubation. The images were acquired in a CQ1 high-throughput imaging system.

[3] = LPS + ATP, 5 and 10 μM, western blot
[4] = in the presence of LPS and ATP, 5 and 10 μM

- pIC50 (NLRP3 inflammasome [1]; read-out: IC50 for IL-1β release): 5.53
- pIC50 (NLRP3 inflammasome [1]; read-out: IC50 for IL-18 release): 5.56
Structure (SMILES): CC(C)=CCc1c(O)ccc(C(=O)/C=C/c2ccc(O)cc2)c1O [IBC, isobavachalcone]
- inhibitory effect on release of IL-1β when autophagy is inhibited (NLRP3 inflammasome [1]; pre-treatment with 20 nM bafilomycin A1 for 1 h, ELISA and western blotting): completely reversed
- toxicity in primary astrocytes (MTT and SRB) (primary astrocytes): no toxicity; also recorded: non-toxic
- ASC speck formation (NLRP3 inflammasome [2]; 5 μM and 10 µM, vs cells induced with ATP): highly significant (p < 0.0001) reduction
- co-localization of CASP1 and NLRP3 (NLRP3 inflammasome [2]; in the presence of siAMPK): did not affect the co-localization
- co-localization of CASP1 and NLRP3 (NLRP3 inflammasome [2]; vs LPS + ATP): reduced the co-localization
- ASC monomer, dimer, and oligomer formation (NLRP3 inflammasome [2]; LPS + ATP, 5 and 10 μM): inhibited
- cleaved CASP1 in supernatant (NLRP3 inflammasome [2]; [3]): reduced release
- cleaved IL-1β in supernatant (NLRP3 inflammasome [2]; [3]): reduced release
- NLRP3 protein expression (NLRP3 inflammasome [2]; LPS + ATP, western blot): no change
- AMPK phosphorylation (Thr 172) (NLRP3 inflammasome [2]; [4]): significantly enhanced phosphorylation
- LC3B-II level (NLRP3 inflammasome [2]; [4]): marked increase
- SQSTM1 level (NLRP3 inflammasome [2]; [4]): significant decline
- inhibitory effect on IL-1b and CASP1 under AMPK knockdown (NLRP3 inflammasome [2]; siAMPK, LPS + ATP): completely reversed
- co-localization of LC3B and LAMP1 (LC3B and LAMP1): proximity of LC3B and LAMP1

— paper PMC11965660, “Isobavachalcone ameliorates Alzheimer disease pathology by autophagy-mediated clearance of amyloid beta and inhibition of NLRP3 inflammasome in primary astrocytes and 5x-FAD mice” (Frontiers in Pharmacology, 2025)
